Read-outs that look alike come from different tables or passages of the source.
Columns and labels:
Assay type in all cases: cell-based
[1] = system: Methicillin-Susceptible Staphylococcus aureus Isolates; experiment: MIC assay (NCCLS broth dilution), MSSA clinical isolates; conditions: for MIC: Staphylococcus aureus
Method in brief: (§1)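 MIC is read as the value from NCCLS-standard broth dilution in Mueller Hinton II medium. Each agent spanned 11 two-fold dilutions, with novobiocin paired to tetracycline or minocycline at a 2.5:1 ratio reflecting serum levels.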

[2] = system: Methicillin-Resistant Staphylococcus aureus Isolates; experiment: MIC assay (NCCLS broth dilution), MRSA clinical isolates; conditions: for MIC: Staphylococcus aureus
Method in brief: as §1

[3] = system: Unconfirmed Vancomycin-intermediate Staphylococcus aureus Isolates; experiment: MIC assay (NCCLS broth dilution), unconfirmed VISA isolates
Method in brief: as §1

[4] = system: Vancomycin-intermediate Staphylococcus epidermidis Isolates; experiment: MIC assay (NCCLS broth dilution), VISE isolates
Method in brief: as §1

CN[C@H](CC(C)C)C(=O)N[C@H]1C(=O)N[C@@H](CC(N)=O)C(=O)N[C@H]2C(=O)N[C@H]3C(=O)N[C@H](C(=O)N[C@H](C(=O)O)c4cc(O)cc(O)c4-c4cc3ccc4O)[C@H](O)c3ccc(c(Cl)c3)Oc3cc2cc(c3O[C@@H]2O[C@H](CO)[C@@H](O)[C@H](O)[C@H]2O[C@H]2C[C@](C)(N)[C@H](O)[C@H](C)O2)Oc2ccc(cc2Cl)[C@H]1O [VA, vancomycin]
.5 to 2 µg/mL: MIC Range ([2]; 52 MRSA isolates, combinations at 2.5:1, given as NB/partner)
1 µg/mL: MIC ([1]; read-out: Minimal Inhibitory Concentration, MSSA isolate 135, 03MAR06) | MIC ([1]; read-out: Minimal Inhibitory Concentration, MSSA isolate 755, 22FEB06) | MIC ([1]; read-out: Minimal Inhibitory Concentration, MSSA isolate 780, 03MAR06) | MIC ([1]; read-out: Minimal Inhibitory Concentration, MSSA isolate 782, 22FEB06) | MIC ([1]; read-out: Minimal Inhibitory Concentration, MSSA isolate 783, 22FEB06) | MIC ([1]; read-out: Minimal Inhibitory Concentration, MSSA isolate 789, 24FEB06) | MIC ([1]; read-out: Minimal Inhibitory Concentration, MSSA isolate 794, 24FEB06) | MIC ([1]; read-out: Minimal Inhibitory Concentration, MSSA isolate 994, 22FEB06) | MIC ([1]; read-out: Minimal Inhibitory Concentration, MSSA isolate 995, 03MAR06) | MIC ([1]; read-out: Minimal Inhibitory Concentration, MSSA isolate 997, 22FEB06) | MIC ([1]; read-out: Minimal Inhibitory Concentration, MSSA isolate 998, 03MAR06) | MIC ([1]; read-out: Minimal Inhibitory Concentration, MSSA isolate 1000, 24FEB06) | MIC ([1]; read-out: Minimal Inhibitory Concentration, MSSA isolate 1001, 24FEB06) | MIC ([1]; read-out: Minimal Inhibitory Concentration, MSSA isolate 1005, 24FEB06) | MIC ([1]; read-out: Minimal Inhibitory Concentration, MSSA isolate 1006, 24FEB06) | MIC ([1]; read-out: Minimal Inhibitory Concentration, MSSA isolate 1007, 24FEB06) | MIC ([1]; read-out: Minimal Inhibitory Concentration, MSSA isolate 1131, 24FEB06) | MIC ([1]; read-out: Minimal Inhibitory Concentration, MSSA isolate 1663, 03MAR06) | MIC ([1]; read-out: Minimal Inhibitory Concentration, MSSA isolate 1667, 03MAR06) | MIC ([1]; read-out: Minimal Inhibitory Concentration, MSSA isolate 1671, 03MAR06) | MIC ([1]; read-out: Minimal Inhibitory Concentration, MSSA isolate 1728, 03MAR06) | MIC ([1]; read-out: Minimal Inhibitory Concentration, MSSA isolate 1728, retest 09MAR06) | MIC ([2]; read-out: Minimal Inhibitory Concentration, MRSA isolate 757, 24FEB06) | MIC ([2]; read-out: Minimal Inhibitory Concentration, MRSA isolate 758, 03MAR06) | MIC ([2]; read-out: Minimal Inhibitory Concentration, MRSA isolate 758, 24FEB06) | MIC ([2]; read-out: Minimal Inhibitory Concentration, MRSA isolate 760, 03MAR06) | MIC ([2]; read-out: Minimal Inhibitory Concentration, MRSA isolate 760, 24FEB06) | MIC ([2]; read-out: Minimal Inhibitory Concentration, MRSA isolate 763, 22FEB06) | MIC ([2]; read-out: Minimal Inhibitory Concentration, MRSA isolate 771, 22FEB06) | MIC ([2]; read-out: Minimal Inhibitory Concentration, MRSA isolate 774, 24FEB06) | MIC ([2]; read-out: Minimal Inhibitory Concentration, MRSA isolate 775, 24FEB06) | MIC ([2]; read-out: Minimal Inhibitory Concentration, MRSA isolate 776, 24FEB06) | MIC ([2]; read-out: Minimal Inhibitory Concentration, MRSA isolate 778, 24FEB06) | MIC ([2]; read-out: Minimal Inhibitory Concentration, MRSA isolate 886, 24FEB06) | MIC ([2]; read-out: Minimal Inhibitory Concentration, MRSA isolate 888, 24FEB06) | MIC ([2]; read-out: Minimal Inhibitory Concentration, MRSA isolate 889, 24FEB06) | MIC ([2]; read-out: Minimal Inhibitory Concentration, MRSA isolate 1004, 24FEB06) | MIC ([2]; read-out: Minimal Inhibitory Concentration, MRSA isolate 1025, 22FEB06) | MIC ([2]; read-out: Minimal Inhibitory Concentration, MRSA isolate 1222, 03MAR06) | MIC ([2]; read-out: Minimal Inhibitory Concentration, MRSA isolate 1222, 24FEB06) | MIC ([2]; read-out: Minimal Inhibitory Concentration, MRSA isolate 1653, 03MAR06) | MIC ([2]; read-out: Minimal Inhibitory Concentration, MRSA isolate 1659, 03MAR06) | MIC ([2]; read-out: Minimal Inhibitory Concentration, MRSA isolate 1661, 03MAR06) | MIC ([2]; read-out: Minimal Inhibitory Concentration, MRSA isolate 1730, 24FEB06) | MIC ([2]; read-out: Minimal Inhibitory Concentration, MRSA isolate 2011, 24FEB06)
4 µg/mL: MIC Range ([3]; 6 unconfirmed VISA isolates (vancomycin MIC 4 ug/ml), combinations at 2.5:1) | MIC ([3]; Staphylococcus aureus, read-out: Minimal Inhibitory Concentration) | Minimal Inhibitory Concentration ([3]; Unconfirmed VISA isolate 2014, 03MAR06) | Minimal Inhibitory Concentration ([3]; Unconfirmed VISA isolate 2015, 03MAR06) | Minimal Inhibitory Concentration ([3]; Unconfirmed VISA isolate 2016, 03MAR06) | Minimal Inhibitory Concentration ([3]; Unconfirmed VISA isolate 2017, 03MAR06) | Minimal Inhibitory Concentration ([3]; Unconfirmed VISA isolate 2019, 03MAR06)
.5 to 1 µg/mL: MIC Range ([1]; 52 MSSA isolates, Mueller Hinton II Broth, combinations at 2.5:1, given as NB/partner)
2 µg/mL: MIC ([2]; read-out: Minimal Inhibitory Concentration, MRSA isolate 1729, 03MAR06) | MIC ([2]; read-out: Minimal Inhibitory Concentration, MRSA isolate 2009, 24FEB06)
8 µg/mL: MIC Range ([4]; 4 VISE isolates, combinations at 2.5:1) | MIC ([4]; Staphylococcus epidermidis, read-out: Minimal Inhibitory Concentration) | Minimal Inhibitory Concentration ([4]; VISE isolate 2020, 09MAR06) | Minimal Inhibitory Concentration ([4]; VISE isolate 2021, 09MAR06) | Minimal Inhibitory Concentration ([4]; VISE isolate 2023, 03MAR06)
0.5 µg/mL: MIC ([1]; read-out: Minimal Inhibitory Concentration, MSSA isolate 133, 03MAR06) | MIC ([1]; read-out: Minimal Inhibitory Concentration, MSSA isolate 134, 03MAR06) | MIC ([1]; read-out: Minimal Inhibitory Concentration, MSSA isolate 753, 22FEB06) | MIC ([1]; read-out: Minimal Inhibitory Concentration, MSSA isolate 754, 22FEB06) | MIC ([1]; read-out: Minimal Inhibitory Concentration, MSSA isolate 754, 24FEB06) | MIC ([1]; read-out: Minimal Inhibitory Concentration, MSSA isolate 756, 03MAR06) | MIC ([1]; read-out: Minimal Inhibitory Concentration, MSSA isolate 779, 22FEB06) | MIC ([1]; read-out: Minimal Inhibitory Concentration, MSSA isolate 781, 03MAR06) | MIC ([1]; read-out: Minimal Inhibitory Concentration, MSSA isolate 784, 22FEB06) | MIC ([1]; read-out: Minimal Inhibitory Concentration, MSSA isolate 785, 22FEB06) | MIC ([1]; read-out: Minimal Inhibitory Concentration, MSSA isolate 786, 22FEB06) | MIC ([1]; read-out: Minimal Inhibitory Concentration, MSSA isolate 787, 22FEB06) | MIC ([1]; read-out: Minimal Inhibitory Concentration, MSSA isolate 788, 22FEB06) | MIC ([1]; read-out: Minimal Inhibitory Concentration, MSSA isolate 790, 24FEB06) | MIC ([1]; read-out: Minimal Inhibitory Concentration, MSSA isolate 791, 24FEB06) | MIC ([1]; read-out: Minimal Inhibitory Concentration, MSSA isolate 792, 03MAR06) | MIC ([1]; read-out: Minimal Inhibitory Concentration, MSSA isolate 793, 24FEB06) | MIC ([1]; read-out: Minimal Inhibitory Concentration, MSSA isolate 996, 22FEB06) | MIC ([1]; read-out: Minimal Inhibitory Concentration, MSSA isolate 999, 22FEB06) | MIC ([1]; read-out: Minimal Inhibitory Concentration, MSSA isolate 1002, 24FEB06) | MIC ([1]; read-out: Minimal Inhibitory Concentration, MSSA isolate 1003, 03MAR06) | MIC ([1]; read-out: Minimal Inhibitory Concentration, MSSA isolate 1008, 24FEB06) | MIC ([1]; read-out: Minimal Inhibitory Concentration, MSSA isolate 1009, 24FEB06) | MIC ([1]; read-out: Minimal Inhibitory Concentration, MSSA isolate 1132, 03MAR06) | MIC ([1]; read-out: Minimal Inhibitory Concentration, MSSA isolate 1133, 24FEB06) | MIC ([1]; read-out: Minimal Inhibitory Concentration, MSSA isolate 1134, 24FEB06) | MIC ([1]; read-out: Minimal Inhibitory Concentration, MSSA isolate 1654, 03MAR06) | MIC ([1]; read-out: Minimal Inhibitory Concentration, MSSA isolate 1656, 03MAR06) | MIC ([1]; read-out: Minimal Inhibitory Concentration, MSSA isolate 1662, 03MAR06) | MIC ([1]; read-out: Minimal Inhibitory Concentration, MSSA isolate 1666, 03MAR06) | MIC ([1]; read-out: Minimal Inhibitory Concentration, MSSA isolate 1668, 03MAR06) | MIC ([2]; read-out: Minimal Inhibitory Concentration, MRSA isolate 765, 22FEB06) | MIC ([2]; read-out: Minimal Inhibitory Concentration, MRSA isolate 766, 22FEB06) | MIC ([2]; read-out: Minimal Inhibitory Concentration, MRSA isolate 767, 22FEB06) | MIC ([2]; read-out: Minimal Inhibitory Concentration, MRSA isolate 768, 22FEB06) | MIC ([2]; read-out: Minimal Inhibitory Concentration, MRSA isolate 769, 22FEB06) | MIC ([2]; read-out: Minimal Inhibitory Concentration, MRSA isolate 770, 22FEB06) | MIC ([2]; read-out: Minimal Inhibitory Concentration, MRSA isolate 772, 22FEB06) | MIC ([2]; read-out: Minimal Inhibitory Concentration, MRSA isolate 773, 24FEB06) | MIC ([2]; read-out: Minimal Inhibitory Concentration, MRSA isolate 777, 24FEB06) | MIC ([2]; read-out: Minimal Inhibitory Concentration, MRSA isolate 887, 24FEB06) | MIC ([2]; read-out: Minimal Inhibitory Concentration, MRSA isolate 1010, 22FEB06) | MIC ([2]; read-out: Minimal Inhibitory Concentration, MRSA isolate 1012, 22FEB06) | MIC ([2]; read-out: Minimal Inhibitory Concentration, MRSA isolate 1013, 22FEB06) | MIC ([2]; read-out: Minimal Inhibitory Concentration, MRSA isolate 1014, 22FEB06) | MIC ([2]; read-out: Minimal Inhibitory Concentration, MRSA isolate 1015, 22FEB06) | MIC ([2]; read-out: Minimal Inhibitory Concentration, MRSA isolate 1016, 22FEB06) | MIC ([2]; read-out: Minimal Inhibitory Concentration, MRSA isolate 1017, 22FEB06) | MIC ([2]; read-out: Minimal Inhibitory Concentration, MRSA isolate 1021, 22FEB06) | MIC ([2]; read-out: Minimal Inhibitory Concentration, MRSA isolate 1022, 22FEB06) | MIC ([2]; read-out: Minimal Inhibitory Concentration, MRSA isolate 1023, 22FEB06) | MIC ([2]; read-out: Minimal Inhibitory Concentration, MRSA isolate 1024, 22FEB06) | MIC ([2]; read-out: Minimal Inhibitory Concentration, MRSA isolate 1135, 22FEB06) | MIC ([2]; read-out: Minimal Inhibitory Concentration, MRSA isolate 1136, 22FEB06) | MIC ([2]; read-out: Minimal Inhibitory Concentration, MRSA isolate 1137, 22FEB06) | MIC ([2]; read-out: Minimal Inhibitory Concentration, MRSA isolate 1138, 22FEB06) | MIC ([2]; read-out: Minimal Inhibitory Concentration, MRSA isolate 1658, 03MAR06) | MIC ([2]; read-out: Minimal Inhibitory Concentration, MRSA isolate 2010, 24FEB06)

Reference: patent publication US20070281992A1, “COMBINATION OF GYRASE B INHIBITORS AND PROTEIN SYNTHESIS INHIBITORS AND USES THEREOF” (priority 2006, published 2007)
